Drawing on US9458181B2, “Cathepsin cysteine protease inhibitors” (Merck Sharp & Dohme Corp., priority 2013, dated 2016), this text covers IC50 for 20 compounds.

The structures appear in SMILES notation.

The target of experiment [1] is human cathepsin K (UniProt P43236). As to the kind of experiment: Cathepsin K Assay (hrbCat K). The class given is biochemical. The conditions noted are these: human cathepsin K 0.4 nM, Z-Leu-Arg-AMC 8 μM, pH 5.5, 15 min preincubation; read-out: hrbCat K IP. A digest of the protocol: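 Human cathepsin K (0.4 nM) in pH 5.5 MES buffer with EDTA, DTT and 10% DMSO was preincubated 15 min at room temperature with compound from a ⅓ dilution series (500-0.025 μM DMSO stocks). Z-Leu-Arg-AMC (8 μM) was then added, and AMC release was followed fluorometrically (Ex 360/Em 460 nm) for 30 min; inhibition was fitted to a dose-response model.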

In experiment [2] the target is T1, human cathepsin F (Homo sapiens, UniProt Q9UBX1).
T1 sequence (Q9UBX1 271-484): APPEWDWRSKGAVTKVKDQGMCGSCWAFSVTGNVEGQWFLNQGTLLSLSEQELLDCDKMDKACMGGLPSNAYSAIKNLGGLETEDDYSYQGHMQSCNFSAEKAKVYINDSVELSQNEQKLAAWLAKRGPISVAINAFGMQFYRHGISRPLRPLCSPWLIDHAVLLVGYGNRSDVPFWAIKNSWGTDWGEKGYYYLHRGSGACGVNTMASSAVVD
As to the kind of experiment: Cathepsin F assay (hCat F). The class given is biochemical. The following applies: human cathepsin F 10 nM, Z-Phe-Arg-AMC 8 μM, pH 5.5, 15 min preincubation; read-out: hCat F IP. A digest of the protocol:
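Fluorogenic read-out: cleavage of Z-Phe-Arg-AMC (8 μM in added buffer) was followed at Ex 360/Em 460 nm for 20 min, with dose-response fitting of percent inhibition. Before substrate addition, 10 nM human enzyme was incubated 15 min at room temperature with compounds (DMSO stocks 500–0.025 μM) in pH 5.5 MES/EDTA/DTT buffer containing 10% DMSO.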

With `CC1(c2nc(-c3ccc(N4CCS(=O)(=O)CC4)cc3)c([C@@H]3CCCC[C@H]3C(=O)NC3(C#N)CC3)o2)CCOCC1` [Example 99, (1R,2R)-N-(1-cyanocyclopropyl)-2-(4-(4-(1,1-dioxidothiomorpholino)phenyl)-2-(4-methyltetrahydro-2H-pyran-4-yl)oxazol-5-yl)cyclohexanecarboxamide], the results for the IC50 in experiment [1] and in experiment [2] were 1.89 nM and 2230 nM, respectively.
The corresponding values for `N#CC1(NC(=O)[C@@H]2CCCC[C@H]2c2oc(-c3cccc(C(F)(F)F)n3)nc2-c2ccc(N3CCS(=O)(=O)CC3)cc2)CC1` [Example 100, (1R,2R)-N-(1-cyanocyclopropyl)-2-(4-(4-(1,1-dioxidothiomorpholino)phenyl)-2-(6-(trifluoromethyl)pyridin-2-yl)oxazol-5-yl)cyclohexanecarboxamide] are 4.11 nM and 2860 nM.
The corresponding values for `N#CC1(NC(=O)[C@@H]2CCCC[C@H]2c2oc(-c3ccc(C4CC4)cc3)nc2-c2ccc(N3CCS(=O)(=O)CC3)cc2)CC1` [Example 101, (1R,2R)-N-(1-cyanocyclopropyl)-2-(2-(4-cyclopropylphenyl)-4-(4-(1,1-dioxidothiomorpholino)phenyl)oxazol-5-yl)cyclohexanecarboxamide] are 0.88 nM and 377 nM.
The corresponding values for `N#CC1(NC(=O)[C@@H]2CCCC[C@H]2c2oc(-c3ccc(F)cc3)nc2-c2ccc(N3CCS(=O)(=O)CC3)c(Br)c2)CC1` [Example 102, (1R,2R)-2-(4-(3-bromo-4-(1,1-dioxidothiomorpholino)phenyl)-2-(4-fluorophenyl)oxazol-5-yl)-N-(1-cyanocyclopropyl) cyclohexanecarboxamide] are 54.5 nM and 416 nM.
With `Cc1ncc(-c2nc(-c3ccc(N4CCS(=O)(=O)CC4)cc3)c([C@@H]3CCCC[C@H]3C(=O)NC3(C#N)CC3)o2)cn1` [Example 103, (1R,2R)-N-(1-cyanocyclopropyl)-2-(4-(4-(1,1-dioxidothiomorpholino)phenyl)-2-(2-methylpyrimidin-5-yl)oxazol-5-yl)cyclohexanecarboxamide], the values for the IC50 in experiment [1] and in experiment [2] were 1.35 nM and 1840 nM, respectively.
In the same order, the values of `N#Cc1ccccc1-c1nc(-c2ccc(N3CCS(=O)(=O)CC3)cc2)c([C@@H]2CCCC[C@H]2C(=O)NC2(C#N)CC2)o1` [Example 105, (1R,2R)-N-(1-cyanocyclopropyl)-2-(2-(2-cyanophenyl)-4-(4-(1,1-dioxidothiomorpholino)phenyl)oxazol-5-yl)cyclohexanecarboxamide] are 2.4 nM and 1920 nM.
As to `N#CC1(NC(=O)[C@@H]2CCCC[C@H]2c2oc(-c3ccc(F)cc3F)nc2-c2ccc(N3CCS(=N)(=O)CC3)cc2)CC1` [Example 106, (1R,2R)-N-(1-cyanocyclopropyl)-2-(2-(2,4-difluorophenyl)-4-(4-(1-imino-1-oxidothiomorpholino)phenyl)oxazol-5-yl)cyclohexanecarboxamide], the IC50 in experiment [1] stood at 1.59 nM; in experiment [2], 192 nM.
Turning to `C[C@@H]1CC(F)(F)CC[C@@H]1c1nc(-c2ccc(N3CCS(=O)(=O)CC3)cc2)c([C@@H]2CCCC[C@H]2C(=O)NC2(C#N)CC2)o1` [Example 107, (1R,2R)-N-(1-cyanocyclopropyl)-2-(2-((1S,2R)-4,4-difluoro-2-methylcyclohexyl)-4-(4-(1,1-dioxidothiomorpholino)phenyl)oxazol-5-yl)cyclohexanecarboxamide], the IC50 was 2.31 nM in experiment [1] and 1290 nM in experiment [2].
The corresponding values for `C[C@H]1CC(F)(F)CC[C@@H]1c1nc(-c2ccc(N3CCS(=O)(=O)CC3)cc2)c([C@@H]2CCCC[C@H]2C(=O)NC2(C#N)CC2)o1` [Example 108, (1R,2R)-N-(1-cyanocyclopropyl)-2-(2-((1S,2S)-4,4-difluoro-2-methylcyclohexyl)-4-(4-(1,1-dioxidothiomorpholino)phenyl)oxazol-5-yl)cyclohexanecarboxamide] are 2.08 nM and 1390 nM.
In the same order, the values of `N#CC1(NC(=O)[C@@H]2CCCC[C@H]2c2oc(C3(C(F)(F)F)CC3)nc2-c2ccc(N3CCS(=O)(=O)CC3)cc2)CC1` [Example 110, (1R,2R)-N-(1-cyanocyclopropyl)-2-(4-(4-(1,1-dioxidothiomorpholino)phenyl)-2-(1-(trifluoromethyl)cyclopropyl)oxazol-5-yl)cyclohexanecarboxamide] are 1.1 nM and 931 nM.
In the same order, the values of `N#CCNC(=O)[C@@H]1CCCC[C@H]1c1oc(-c2ccc(F)cc2)nc1-c1ccc(N2CCS(=O)(=O)CC2)cc1` [Example 112, (1R,2R)-N-(cyanomethyl)-2-(4-(4-(1,1-dioxidothiomorpholino)phenyl)-2-(4-fluorophenyl)oxazol-5-yl)cyclohexanecarboxamide] are 0.73 nM and 126 nM.
`CC1(C)C(c2nc(-c3ccc(N4CCS(=O)(=O)CC4)cc3)c([C@@H]3CCCC[C@H]3C(=O)NC3(C#N)CC3)o2)C1(C)C` [Example 113, (1R,2R)-N-(1-cyanocyclopropyl)-2-(4-(4-(1,1-dioxidothiomorpholino)phenyl)-2-(2,2,3,3-tetramethylcyclopropyl)oxazol-5-yl)cyclohexanecarboxamide]: the IC50 came out at 4.21 nM in experiment [1] and 2450 nM in experiment [2].
In the same order, the values of `CC(C)(c1nc(-c2ccc(N3CCS(=O)(=O)CC3)cc2)c([C@@H]2CCCC[C@H]2C(=O)NC2(C#N)CC2)o1)C(F)(F)F` [Example 115, (1R,2R)-N-(1-cyanocyclopropyl)-2-(4-(4-(1,1-dioxidothiomorpholino)phenyl)-2-(1,1,1-trifluoro-2-methylpropan-2-yl)oxazol-5-yl)cyclohexanecarboxamide] are 1.34 nM and 1770 nM.
Take `N#CC1(NC(=O)[C@@H]2CC(F)(F)CC[C@H]2c2oc(C(F)(F)C(F)(F)F)nc2-c2ccc(C(=O)N3CCOCC3)cc2)CC1` [Example 119, (1R,2R)-N-(1-cyanocyclopropyl)-5,5-difluoro-2-(4-(4-(morpholine-4-carbonyl)phenyl)-2-(perfluoroethyl)oxazol-5-yl)cyclohexanecarboxamide]: the IC50 in experiment [1] is 1.04 nM; in experiment [2], 306 nM.
In the same order, the values of `N#C[C@H](NC(=O)[C@@H]1CCCC[C@H]1c1oc(-c2ccc(F)cc2)nc1-c1ccc(N2CCS(=O)(=O)CC2)cc1)C1CCOCC1` [Example 127, (1R,2R)-N-((R)-cyano(tetrahydro-2H-pyran-4-yl)methyl)-2-(4-(4-(1,1-dioxidothiomorpholino)phenyl)-2-(4-fluorophenyl)oxazol-5-yl)cyclohexanecarboxamide] are 48.5 nM and at least 10000 nM.
The corresponding values for `N#C[C@@H](NC(=O)[C@@H]1CCCC[C@H]1c1oc(-c2ccc(F)cc2)nc1-c1ccc(N2CCS(=O)(=O)CC2)cc1)C1CCOCC1` [Example 128, (1R,2R)-N-((S)-cyano(tetrahydro-2H-pyran-4-yl)methyl)-2-(4-(4-(1,1-dioxidothiomorpholino)phenyl)-2-(4-fluorophenyl)oxazol-5-yl)cyclohexanecarboxamide] are 1.94 nM and 692 nM.
For the compound `CS(=O)(=O)N1CCN(C(=O)c2ccc(-c3nc(-c4ccc(F)cc4F)oc3[C@@H]3CCCC[C@H]3C(=O)NC3(C#N)CC3)cc2)CC1` [Example 129, (1R,2R)-N-(1-cyanocyclopropyl)-2-(2-(2,4-difluorophenyl)-4-(4-(4-(mcthylsulfonyl)piperazine-1-carbonyl)phenyl)oxazol-5-yl)cyclohexanecarboxamide], the IC50 in experiment [1] is 9.12 nM; in experiment [2], 3930 nM.
As to `N#CC1(NC(=O)[C@@H]2CCCC[C@H]2c2oc(C(F)(F)c3ccccc3)nc2-c2ccc(N3CCS(=O)(=O)CC3)cc2)CC1` [Example 130, (1R,2R)-N-(1-cyanocyclopropyl)-2-(2-(difluoro(phenyl)methyl)-4-(4-(1,1-dioxidothiomorpholino)phenyl)oxazol-5-yl)cyclohexanecarboxamide], the results for the IC50 in experiment [1] and in experiment [2] were 1.25 nM and 70 nM, respectively.
In the same order, the values of `N#CC1(NC(=O)[C@@H]2CCCC[C@H]2c2oc(-c3ccc(F)cc3)nc2-c2ccc(N3CC[S+]([O-])CC3)cc2)CC1` [Example 135, (1R,2R)-N-(1-cyanocyclopropyl)-2-(2-(4-fluorophenyl)-4-(4-(1-oxidothiomorpholino)phenyl)oxazol-5-yl)cyclohexanecarboxamide] are 1.39 nM and 458 nM.
The corresponding values for `N#CCNC(=O)[C@@H]1CC(F)(F)CC[C@H]1c1oc(C(F)(F)C(F)(F)F)nc1-c1ccc(C(=O)N2CCOCC2)cc1` [Example 136, (1R,2R)-N-(cyanomethyl)-5,5-difluoro-2-(4-(4-(morpholine-4-carbonyl)phenyl)-2-(perfluoroethyl)oxazol-5-yl)cyclohexanecarboxamide] are 0.74 nM and 319 nM.
